Activation and inhibition in vivo data for 18 compounds are collected here from patent US20120277208A1 (ASTELLAS PHARMA INC., priority 2009, published 2012).

Test [1] concerns the target T1, recombinant human liver type GK (GST-hGK2) (Homo sapiens, UniProt P35557).
T1 construct: made in house; host or cells: E. coli BL21
T1 sequence (P35557 1-466 isoform P35557-2): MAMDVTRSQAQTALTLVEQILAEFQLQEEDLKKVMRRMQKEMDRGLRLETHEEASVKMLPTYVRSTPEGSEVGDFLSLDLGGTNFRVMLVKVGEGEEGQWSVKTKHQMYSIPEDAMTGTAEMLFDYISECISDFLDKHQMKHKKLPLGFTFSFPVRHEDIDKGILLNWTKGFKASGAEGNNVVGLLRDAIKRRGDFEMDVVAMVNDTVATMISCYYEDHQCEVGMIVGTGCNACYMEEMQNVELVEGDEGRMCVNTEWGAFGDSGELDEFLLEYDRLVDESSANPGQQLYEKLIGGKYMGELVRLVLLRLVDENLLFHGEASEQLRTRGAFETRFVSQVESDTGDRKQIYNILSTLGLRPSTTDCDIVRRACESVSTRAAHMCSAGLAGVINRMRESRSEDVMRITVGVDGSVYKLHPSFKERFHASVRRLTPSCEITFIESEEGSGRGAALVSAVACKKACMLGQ
The test can be described thus: Measurement of glucokinase (GK) activation. It counts as biochemical. Particulars: 10 min; test compound final concentration of 10 μM; 5 mM glucose; 27° C.; relative to DMSO. The protocol:
Test Example 1 Measurement of Glucokinase (GK) Activation
The present test was carried out in accordance with the method described in Science 301: 370-373, 2003 with partial modification, and is summarized as below.
First, cloning of GK (GenBank No. AK122876) was carried out. PCR was carried out using 5′-[…]-3′ (SEQ ID NO: 1) and 5′-[…]-3′ (SEQ ID NO: 2) as primers, and pME18S-FL3-Glucokinase isoform 2 as a template. The resulting reaction product was TA-cloned into a pGEM-T easy vector, and then digested with EcoRI and XhoI, and the fragment was ligated to a pGEX-5X-1 vector digested in the same manner. Using this plasmid DNA (pGEX-human Glucokinase 2), a recombinant human liver type GK (GST-hGK2) fused with GST (Glutathione S-transferase) was expressed in E. coli (strain BL21), and purified by Glutathione Sepharose.
The reaction of GK was carried out at 27° C. on a 96-well plate. First, 1 μL of a test compound diluted with dimethylsulfoxide (DMSO) (final concentration of 10 μM) was added to a 89 μL of an enzyme mixed liquid (25 mM HEPES pH 7.4, 25 mM KCl, 2 mM MgCl2, 1 mM ATP, 0.1% BSA, 1 mM DTT, 1 mM NADP (nicotinamide adenine dinucleotide phosphate), 2.5 U/mL glucose-6-phosphate dehydrogenase, GST-hGK2 adjusted to ΔODCont as described later to be about 0.05 to 0.10, all of which are final concentrations). Subsequently, 10 μL of a substrate solution (final concentration of 5 mM glucose) was added thereto to initiate the reaction. In order to quantify a final product NADPH, an absorbance at a wavelength of 340 nm was measured, and the GK activation (%) of the test compound was calculated from the increase (DOD) in the absorbance during the first 10 minutes after the initiation of the reaction, using the following formula.
GK activation (%)=[(ΔODTest)−(ΔODCont)]/(ΔODCont)×100
ΔODTest: ΔOD at the test compound
Further, Ex indicates Example compound Number.

The test system of test [2] is ICR mice. The test can be described thus: Oral glucose loading test in normal mice. It counts as in vivo. Particulars: Mus musculus, AUC lowering rate of blood glucose, immediately before to 2 hours after glucose loading, vs solvent control, 10 mg/kg orally, ICR mice fasted overnight, glucose loading after 30 minutes, read-out: Blood glucose level lowering rate (%). The protocol: Test Example 2 Oral Glucose Loading Test in Normal Mice
The test compound was dissolved in a solvent (5% Cremophor, 5% aqueous DMSO solution), 10 mg/kg of the test compound was orally administered to ICR mice after fasting overnight, and after 30 minutes, oral glucose loading was carried out. Immediately before the administration of the test compound, immediately before the glucose loading, and 0.25, 0.5, 1, and 2 hours after the glucose loading, blood was collected and blood glucose levels were measured. An AUC lowering rate (%) of the blood glucose levels from immediately before the glucose loading to 2 hours after the glucose loading with respect to that of the solvent control was calculated.

On to `COC[C@H](C)Oc1cc(Oc2ccc(-c3nc(C(N)=O)no3)nc2)cc(C(=O)Nc2ccn(C)n2)c1` [Ex 1], for which, in test [1], the activation at 10 µM was 295%. In test [2], the inhibition in vivo at 10 mg/kg turned out to be 37%.

Turning to `CNC(=O)c1noc(-c2ccc(Oc3cc(OC(C)C)cc(C(=O)Nc4ccn(C)n4)c3)cn2)n1` [Ex 2], the activation at 10 µM in test [1] is 338%. Moreover, the inhibition in vivo at 10 mg/kg in test [2] turned out to be 59%.

In the case of `CNC(=O)c1nnc(-c2ccc(Oc3cc(OC(C)C)cc(C(=O)Nc4ccn(C)n4)c3)cn2)o1` [Ex 3], the activation at 10 µM in test [1] came out at 380%. Further, in test [2], the inhibition in vivo at 10 mg/kg was found to be 64%.

Consider `CC(C)Oc1cc(Oc2ccc(-c3nc(C(N)=O)no3)nc2)cc(C(=O)Nc2ccn(C)n2)c1` [Ex 9], for which the activation at 10 µM in test [1] amounted to 319%. Moreover, the inhibition in vivo at 10 mg/kg in test [2] was determined as 46%.

As for `CC(C)Oc1cc(Oc2ccc(-c3nc(C(=O)N(C)C)no3)nc2)cc(C(=O)Nc2ccn(C)n2)c1` [Ex 10], in test [1], the activation at 10 µM was found to be 380%. In addition, in test [2], the inhibition in vivo at 10 mg/kg came to 61%.

As to `CC(C)Oc1cc(Oc2cnc(N(CC3CC3)C(=O)C3CCOCC3)cn2)cc(C(=O)Nc2ccn(C)n2)c1` [Ex 23], in test [1], the activation at 10 µM is 347%. In addition, the inhibition in vivo at 10 mg/kg in test [2] stood at 52%.

With `C[C@@H](CO)Oc1cc(Oc2cnc(N(CC3CC3)C(=O)C3CCOCC3)cn2)cc(C(=O)Nc2ccn(C)n2)c1` [Ex 24], the activation at 10 µM in test [1] was 269%. Also, the inhibition in vivo at 10 mg/kg in test [2] came out at 49%.

`COC[C@H](C)Oc1cc(Oc2cnc(N(CC3CC3)C(=O)CN(C)C)cn2)cc(C(=O)Nc2ccn(C)n2)c1` [Ex 29]: the activation at 10 µM in test [1] was 287%. Moreover, the inhibition in vivo at 10 mg/kg in test [2] turned out to be 49%.

As to `CC(C)Oc1cc(Oc2cnc(-c3noc(C(=O)N(C)C)n3)cn2)cc(C(=O)Nc2ccn(C)n2)c1` [Example 67], in test [1], the activation at 10 µM turned out to be 498%. Also, in test [2], the inhibition in vivo at 10 mg/kg was determined as 57%.

With `CC(C)Oc1cc(Oc2cnc(N(CC3CC3)C(=O)N3CCNC3=O)cn2)cc(C(=O)Nc2ccn(C)n2)c1` [Example 74], the activation at 10 µM in test [1] turned out to be 298%. Besides, the inhibition in vivo at 10 mg/kg in test [2] was determined as 45%.

As to `CC(C)Oc1cc(Oc2cnc(-c3nnc(C(=O)N(C)C)o3)cn2)cc(C(=O)Nc2ccn(C)n2)c1` [Example 98], the activation at 10 µM in test [1] was 498%. Also, in test [2], the inhibition in vivo at 10 mg/kg is 54%.

`CC(=O)N(CC1CC1)c1cc(Oc2cnc(N(CC3CC3)C(=O)C3CCOCC3)cn2)cc(C(=O)Nc2ccn(C)n2)c1` [Example 101]: the activation at 10 µM in test [1] was 345%. The inhibition in vivo at 10 mg/kg in test [2] was found to be 48%.

Take `COCCOCC(=O)N(CC1CC1)c1cnc(Oc2cc(OC(C)C)cc(C(=O)Nc3ccn(C)n3)c2)cn1` [Example 119]: the activation at 10 µM in test [1] was found to be 376%. Moreover, the inhibition in vivo at 10 mg/kg in test [2] came out at 40%.

As for `COC[C@H](C)Oc1cc(Oc2ccc(-c3noc(C(=O)N(C)C)n3)nc2)cc(C(=O)Nc2ccn(C)n2)c1` [Example 130], the activation at 10 µM in test [1] was found to be 502%. Moreover, the inhibition in vivo at 10 mg/kg in test [2] turned out to be 65%.

Take `CNC(=O)c1noc(-c2cnc(Oc3cc(OC(C)C)cc(C(=O)Nc4ccn(C)n4)c3)cn2)n1` [Example 138]: in test [1], the activation at 10 µM was determined as 316%. In test [2], the inhibition in vivo at 10 mg/kg amounted to 61%.

For `COCCOCC(=O)N(CC1CC1)c1cnc(Oc2cc(O[C@@H](C)CO)cc(C(=O)Nc3ccn(C)n3)c2)cn1` [Example 156, 3-[(5-{(cyclopropylmethyl)[(2-methoxyethoxy)acetyl]amino}pyrazin-2-yl)oxy]-5-{[(2S)-1-hydroxypropan-2-yl]oxy}-N-(1-methyl-1H-pyrazol-3-yl)benzamide], in test [1], the activation at 10 µM was 237%. For the same compound, in test [2], the inhibition in vivo at 10 mg/kg turned out to be 18%.

On to `C[C@@H](CO)Oc1cc(Oc2cnc(N(CC3CC3)C(=O)[C@H]3CCCO3)cn2)cc(C(=O)Nc2ccn(C)n2)c1` [Example 158], for which the activation at 10 µM in test [1] worked out at 237%. Further, the inhibition in vivo at 10 mg/kg in test [2] amounted to 29%.

As to `C[C@@H](CO)Oc1cc(Oc2ccc(-c3nc(C(N)=O)no3)nc2)cc(C(=O)Nc2ccn(C)n2)c1` [Example 162], the activation at 10 µM in test [1] came out at 306%. For the same compound, the inhibition in vivo at 10 mg/kg in test [2] turned out to be 25%.
